# Assay results reported in patent US8815007B2, “Alkoxylated polyamines and polyetheramine polyol compositions for foam control” (priority 2007, dated 2014).
# Assay: Equilibrium surface tension, double-probe bubble tensiometer
# Type: physicochemical
# Conditions: one bubble per second
# Experimental: The antifoaming properties of the above compositions were evaluated using the blender foam test as described below. Surface tensions were determined using a […] OC-6000 double-probe bubble tensiometer. Equilibrium surface tensions were determined on 0.1% active solutions in deionized water at 25° C. by using a bubble rate of one bubble per second. […] Surface tension measurements were carried out using a Sensation QC-6000 double-probe bubble tensiometer from the Sensation Division of Chem-Dyne Research Corp. of Mesa, Ariz.
substance,measurement,setting,value
diethylenetriamine/2 mol 1-epoxyoctane adduct [Example 2],Surface Tension,"Table 2, 0.1% active solutions in deionized water at 25° C.",36.2 mN/m
same,Surface Tension,"Table 3, 0.1% active solutions in deionized water at 25 deg C.",36.2 mN/m
